# Measured values reported in US9695155B2, “Herbicidal substituted pyrimidinyloxy benzene compounds” (E. I. DU PONT DE NEMOURS AND COMPANY, priority 2013, dated 2017).
# What was measured:
# barnyardgrass [1] = experiment: Test A preemergence; format: in vivo, Echinochloa crus-galli; settings: for Plant response rating, Barnyardgrass: 125 g ai/ha, 0 to 100 scale where 0 is no effect and 100 is complete control; for Barnyardgrass plant response rating: 500 g ai/ha, 0 to 100 scale, 0 no effect, 100 complete control, approx. 10 days
# Procedure, shortened: (§1)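 Pre- and postemergence greenhouse screen. Soil: loam + sand. Spray carrier: solvent mixture, non-phytotoxic, with surfactant. Post timing at 1–2 leaves, height 2–10 cm. Readout: visual injury on a 0–100 scale roughly 10 days after application, untreated plants as reference.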
# soybean [2] = experiment: Test C preemergence; format: in vivo, Glycine max; settings: for Soybean plant response rating: preemergence; for Plant response rating, Soybean: Preemergence, 31 g ai/ha, scale 0 to 100, 0 no effect, 100 complete control
# Procedure, shortened: (§2)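 Visual injury score versus untreated controls, 0 = no effect, 100 = complete control, taken 13 to 15 days after treatment in the greenhouse. Pre-emergence pots held loam/sand; post-emergence plants grew in sphagnum peat/vermiculite mix and were sprayed at the 1- to 4-leaf stage.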
# barnyardgrass [3] = experiment: Test C preemergence; format: in vivo, Echinochloa crus-galli; settings: for Barnyardgrass plant response rating: preemergence; for Plant response rating, Barnyardgrass: Preemergence, 31 g ai/ha, scale 0 to 100, 0 no effect, 100 complete control
# Procedure, shortened: as §2
# wheat = experiment: Test A postemergence; format: in vivo, Triticum aestivum; settings: 0 to 100 scale where 0 is no effect and 100 is complete control
# Procedure, shortened: as §1
# giant foxtail = experiment: Test C postemergence; format: in vivo, Setaria faberii; settings: for Foxtail, Giant plant response rating: 16 g ai/ha, visual rating; for Foxtail, Giant plant response rating / Plant response rating (0 to 100), Foxtail, Giant: postemergence; for Foxtail, Giant plant response rating / Plant response rating, Foxtail, Giant: scale 0 to 100 (0 no effect, 100 complete control); for Plant response rating (0 to 100), Foxtail, Giant: 125 g ai/ha; for Plant response rating, Foxtail, Giant: Postemergence
# Procedure, shortened: as §2
# blackgrass [4] = experiment: Test C preemergence; format: in vivo, Alopecurus myosuroides; settings: for Blackgrass plant response rating: preemergence; for Plant response rating, Blackgrass: Preemergence, 31 g ai/ha, scale 0 to 100, 0 no effect, 100 complete control
# Procedure, shortened: as §2
# ragweed = experiment: Test C postemergence; format: in vivo, Ambrosia elatior; settings: for Plant response rating (0 to 100), Ragweed: 125 g ai/ha, postemergence; for Plant response rating, Ragweed: Postemergence, scale 0 to 100 (0 no effect, 100 complete control)
# Procedure, shortened: as §2
# oilseed rape = experiment: Test C postemergence; format: in vivo, Brassica napus; settings: for Plant response rating (0 to 100), Oilseed Rape: 125 g ai/ha, postemergence; for Plant response rating, Oilseed Rape: Postemergence, scale 0 to 100 (0 no effect, 100 complete control)
# Procedure, shortened: as §2
# blackgrass [5] = experiment: Test C postemergence; format: in vivo, Alopecurus myosuroides; settings: for Blackgrass plant response rating: 16 g ai/ha, visual rating; for Blackgrass plant response rating / Plant response rating (0 to 100), Blackgrass: postemergence; for Blackgrass plant response rating / Plant response rating, Blackgrass: scale 0 to 100 (0 no effect, 100 complete control); for Plant response rating (0 to 100), Blackgrass: 125 g ai/ha; for Plant response rating, Blackgrass: Postemergence
# Procedure, shortened: as §2
# soybean [6] = experiment: Test C postemergence; format: in vivo, Glycine max; settings: for Plant response rating (0 to 100), Soybean: 125 g ai/ha, postemergence; for Plant response rating, Soybean: Postemergence, scale 0 to 100 (0 no effect, 100 complete control)
# Procedure, shortened: as §2
# large (Lg) crabgrass = experiment: Test C preemergence; format: in vivo, Digitaria sanguinalis; settings: for Crabgrass, Large plant response rating: preemergence; for Plant response rating, Crabgrass, Large: Preemergence, 31 g ai/ha, scale 0 to 100, 0 no effect, 100 complete control
# Procedure, shortened: as §2
# wheat, winter = experiment: Test C preemergence; format: in vivo, Triticum aestivum; settings: for Wheat plant response rating: preemergence; for Plant response rating, Wheat: Preemergence, 31 g ai/ha, scale 0 to 100, 0 no effect, 100 complete control
# Procedure, shortened: as §2
# rice = experiment: Test B flooded paddy test; format: in vivo, Oryza sativa; settings: Flood, 250 g ai/ha; 0 to 100 scale where 0 is no effect and 100 is complete control
# Procedure, shortened: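 2-leaf stage plants; pots flooded to 3 cm, compound added to paddy water, depth maintained. Greenhouse 13–15 d. Visual rating vs untreated controls, 0 (no effect) to 100 (complete control); dash = no result.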
# [7] = 16 g ai/ha, scale 0 to 100 (0 no effect, 100 complete control)
# [8] = 62 g ai/ha, scale 0 (no effect) to 100 (complete control)
# [9] = 125 g ai/ha, scale 0 (no effect) to 100 (complete control)
smiles,measurement,setting,value
CCOc1cn(-c2c(Br)cccc2Oc2ncc(Cl)cn2)nn1 [Compound 84],"Plant response rating, Barnyardgrass",barnyardgrass [1],50
same,Barnyardgrass plant response rating,barnyardgrass [1],90
same,Soybean plant response rating,soybean [2]; [7],0
same,Soybean plant response rating,soybean [2]; [8],60
same,Soybean plant response rating,soybean [2]; [9],70
same,"Plant response rating, Soybean",soybean [2],20
same,Barnyardgrass plant response rating,barnyardgrass [3]; [7],0
same,Barnyardgrass plant response rating,barnyardgrass [3]; [8],40
same,Barnyardgrass plant response rating,barnyardgrass [3]; [9],85
same,"Plant response rating, Barnyardgrass",barnyardgrass [3],25
same,"Plant response rating, Wheat",wheat; 125 g ai/ha,30
same,"Plant response rating, Wheat",wheat; 500 g ai/ha,80
same,"Foxtail, Giant plant response rating",giant foxtail; 13 to 15 days,40
same,"Plant response rating (0 to 100), Foxtail, Giant",giant foxtail,50
same,"Plant response rating, Foxtail, Giant","giant foxtail; 31 g ai/ha, 13 to 15 days",5
same,"Plant response rating, Foxtail, Giant",giant foxtail; 62 g ai/ha,5
same,Blackgrass plant response rating,blackgrass [4]; [7],0
same,Blackgrass plant response rating,blackgrass [4]; [8],40
same,Blackgrass plant response rating,blackgrass [4]; [9],85
same,"Plant response rating, Blackgrass",blackgrass [4],5
same,"Plant response rating (0 to 100), Ragweed",ragweed,80
same,"Plant response rating, Ragweed","ragweed; 31 g ai/ha, 13 to 15 days",10
same,"Plant response rating, Ragweed",ragweed; 62 g ai/ha,40
same,"Plant response rating (0 to 100), Oilseed Rape",oilseed rape,60
same,"Plant response rating, Oilseed Rape","oilseed rape; 31 g ai/ha, 13 to 15 days",20
same,"Plant response rating, Oilseed Rape",oilseed rape; 62 g ai/ha,45
same,Blackgrass plant response rating,blackgrass [5]; 13 to 15 days,5
same,"Plant response rating (0 to 100), Blackgrass",blackgrass [5],20
same,"Plant response rating, Blackgrass","blackgrass [5]; 31 g ai/ha, 13 to 15 days",5
same,"Plant response rating, Blackgrass",blackgrass [5]; 62 g ai/ha,5
same,"Plant response rating (0 to 100), Soybean",soybean [6],90
same,"Plant response rating, Soybean","soybean [6]; 31 g ai/ha, 13 to 15 days",55
same,"Plant response rating, Soybean",soybean [6]; 62 g ai/ha,90
same,"Crabgrass, Large plant response rating",large (Lg) crabgrass; [7],45
same,"Crabgrass, Large plant response rating",large (Lg) crabgrass; [8],100
same,"Crabgrass, Large plant response rating",large (Lg) crabgrass; [9],100
same,"Plant response rating, Crabgrass, Large",large (Lg) crabgrass,98
same,Wheat plant response rating,"wheat, winter; [7]",0
same,Wheat plant response rating,"wheat, winter; [8]",0
same,Wheat plant response rating,"wheat, winter; [9]",0
same,"Plant response rating, Wheat","wheat, winter",0
same,"Plant response rating, Rice",rice,0
N#Cc1cccc(Oc2ncc(F)cn2)c1-n1cc(I)cn1 [Compound 86],"Plant response rating, Barnyardgrass",barnyardgrass [1],80
same,Barnyardgrass plant response rating,barnyardgrass [1],100
same,Soybean plant response rating,soybean [2]; [7],35
same,Soybean plant response rating,soybean [2]; [8],75
same,Soybean plant response rating,soybean [2]; [9],85
same,"Plant response rating, Soybean",soybean [2],45
same,Barnyardgrass plant response rating,barnyardgrass [3]; [7],5
same,Barnyardgrass plant response rating,barnyardgrass [3]; [8],40
same,Barnyardgrass plant response rating,barnyardgrass [3]; [9],95
same,"Plant response rating, Barnyardgrass",barnyardgrass [3],10
same,"Plant response rating, Wheat",wheat; 125 g ai/ha,50
same,"Plant response rating, Wheat",wheat; 500 g ai/ha,90
same,"Foxtail, Giant plant response rating",giant foxtail; 13 to 15 days,5
same,"Plant response rating (0 to 100), Foxtail, Giant",giant foxtail,25
same,"Plant response rating, Foxtail, Giant","giant foxtail; 31 g ai/ha, 13 to 15 days",5
same,"Plant response rating, Foxtail, Giant",giant foxtail; 62 g ai/ha,15
same,Blackgrass plant response rating,blackgrass [4]; [7],0
same,Blackgrass plant response rating,blackgrass [4]; [8],90
same,Blackgrass plant response rating,blackgrass [4]; [9],98
same,"Plant response rating, Blackgrass",blackgrass [4],20
same,"Plant response rating (0 to 100), Ragweed",ragweed,85
same,"Plant response rating, Ragweed","ragweed; 31 g ai/ha, 13 to 15 days",50
same,"Plant response rating, Ragweed",ragweed; 62 g ai/ha,55
same,"Plant response rating (0 to 100), Oilseed Rape",oilseed rape,45
same,"Plant response rating, Oilseed Rape","oilseed rape; 31 g ai/ha, 13 to 15 days",40
same,"Plant response rating, Oilseed Rape",oilseed rape; 62 g ai/ha,60
same,Blackgrass plant response rating,blackgrass [5]; 13 to 15 days,5
same,"Plant response rating (0 to 100), Blackgrass",blackgrass [5],10
same,"Plant response rating, Blackgrass","blackgrass [5]; 31 g ai/ha, 13 to 15 days",5
same,"Plant response rating, Blackgrass",blackgrass [5]; 62 g ai/ha,5
same,"Plant response rating (0 to 100), Soybean",soybean [6],75
same,"Plant response rating, Soybean","soybean [6]; 31 g ai/ha, 13 to 15 days",60
same,"Plant response rating, Soybean",soybean [6]; 62 g ai/ha,70
same,"Crabgrass, Large plant response rating",large (Lg) crabgrass; [7],85
same,"Crabgrass, Large plant response rating",large (Lg) crabgrass; [8],100
same,"Crabgrass, Large plant response rating",large (Lg) crabgrass; [9],100
same,"Plant response rating, Crabgrass, Large",large (Lg) crabgrass,100
same,Wheat plant response rating,"wheat, winter; [7]",0
same,Wheat plant response rating,"wheat, winter; [8]",0
same,Wheat plant response rating,"wheat, winter; [9]",35
same,"Plant response rating, Wheat","wheat, winter",0
same,"Plant response rating, Rice",rice,0
N#Cc1cccc(Oc2ncc(Br)cn2)c1-n1cc(I)cn1 [Compound 88],"Plant response rating, Barnyardgrass",barnyardgrass [1],60
same,Barnyardgrass plant response rating,barnyardgrass [1],80
same,Soybean plant response rating,soybean [2]; [7],0
same,Soybean plant response rating,soybean [2]; [8],40
same,Soybean plant response rating,soybean [2]; [9],90
same,"Plant response rating, Soybean",soybean [2],5
same,Barnyardgrass plant response rating,barnyardgrass [3]; [7],5
same,Barnyardgrass plant response rating,barnyardgrass [3]; [8],35
same,Barnyardgrass plant response rating,barnyardgrass [3]; [9],95
same,"Plant response rating, Barnyardgrass",barnyardgrass [3],5
same,"Plant response rating, Wheat",wheat; 125 g ai/ha,0
same,"Plant response rating, Wheat",wheat; 500 g ai/ha,50
same,"Foxtail, Giant plant response rating",giant foxtail; 13 to 15 days,20
same,"Plant response rating (0 to 100), Foxtail, Giant",giant foxtail,40
same,"Plant response rating, Foxtail, Giant","giant foxtail; 31 g ai/ha, 13 to 15 days",35
same,"Plant response rating, Foxtail, Giant",giant foxtail; 62 g ai/ha,30
same,Blackgrass plant response rating,blackgrass [4]; [7],0
same,Blackgrass plant response rating,blackgrass [4]; [8],60
same,Blackgrass plant response rating,blackgrass [4]; [9],90
same,"Plant response rating, Blackgrass",blackgrass [4],5
same,"Plant response rating (0 to 100), Ragweed",ragweed,60
same,"Plant response rating, Ragweed","ragweed; 31 g ai/ha, 13 to 15 days",55
same,"Plant response rating, Ragweed",ragweed; 62 g ai/ha,55
same,"Plant response rating (0 to 100), Oilseed Rape",oilseed rape,45
same,"Plant response rating, Oilseed Rape","oilseed rape; 31 g ai/ha, 13 to 15 days",50
same,"Plant response rating, Oilseed Rape",oilseed rape; 62 g ai/ha,55
same,Blackgrass plant response rating,blackgrass [5]; 13 to 15 days,5
same,"Plant response rating (0 to 100), Blackgrass",blackgrass [5],10
same,"Plant response rating, Blackgrass","blackgrass [5]; 31 g ai/ha, 13 to 15 days",10
same,"Plant response rating, Blackgrass",blackgrass [5]; 62 g ai/ha,10
same,"Plant response rating (0 to 100), Soybean",soybean [6],65
same,"Plant response rating, Soybean","soybean [6]; 31 g ai/ha, 13 to 15 days",65
same,"Plant response rating, Soybean",soybean [6]; 62 g ai/ha,95
same,"Crabgrass, Large plant response rating",large (Lg) crabgrass; [7],45
same,"Crabgrass, Large plant response rating",large (Lg) crabgrass; [8],100
same,"Crabgrass, Large plant response rating",large (Lg) crabgrass; [9],100
same,"Plant response rating, Crabgrass, Large",large (Lg) crabgrass,70
same,Wheat plant response rating,"wheat, winter; [7]",0
same,Wheat plant response rating,"wheat, winter; [8]",0
same,Wheat plant response rating,"wheat, winter; [9]",5
same,"Plant response rating, Wheat","wheat, winter",0
same,"Plant response rating, Rice",rice,0
